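1) Cells in 96-well plates. 2) Compound, 48 h, 5 concentrations. 3) Linear interpolation between surrounding doses. 4) Unreached endpoint = highest concentration. GI50 marks 50% less growth.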 The source made the active and inactive calls. Cut-off read from the data, not from the text of the source: active = GI50 up to about 1.1 µM and inactive = higher.
How the values were obtained:
Assay in all cases: growth of human tumour cells (NCI), 48 h
A549 = test system: A549
SN12C = test system: SN12C
HCT-15 = test system: HCT-15
SK-MEL-28 = test system: SK-MEL-28
OVCAR-8 = test system: OVCAR-8
SF-295 = test system: SF-295
KM12 = test system: KM12
NCI-H460 = test system: NCI-H460
Malme-3M = test system: Malme-3M
UACC-62 = test system: UACC-62
COLO 205 = test system: COLO 205
OVCAR-4 = test system: OVCAR-4
ACHN = test system: ACHN
RPMI-8226 = test system: RPMI-8226
NCI-H226 = test system: NCI-H226
SK-MEL-5 = test system: SK-MEL-5
SR = test system: SR

SMILES	GI50 (A549)	GI50 (SN12C)	GI50 (HCT-15)	GI50 (SK-MEL-28)	GI50 (OVCAR-8)	GI50 (SF-295)	GI50 (KM12)	GI50 (NCI-H460)	GI50 (Malme-3M)	GI50 (UACC-62)	GI50 (COLO 205)	GI50 (OVCAR-4)	GI50 (ACHN)	GI50 (RPMI-8226)	GI50 (NCI-H226)	GI50 (SK-MEL-5)	GI50 (SR)
O=C(CC(=O)N1N=C(n2ccc3ccccc32)CC1c1ccccc1)Nc1cccc(Cl)c1 (stereo not given)	> 100 µM (inactive)	> 100 µM (inactive)	> 100 µM	> 100 µM (inactive)	> 100 µM (inactive)	> 100 µM (inactive)	> 100 µM (inactive)	> 100 µM (inactive)	> 100 µM (inactive)	> 100 µM (inactive)	> 100 µM (inactive)	> 100 µM (inactive)	> 100 µM (inactive)	> 100 µM (inactive)			
O=C1NC(=O)/C(=N\c2cccc3c(=O)[nH][nH]c(=O)c23)C(c2nc3ccccc3s2)C1=O (stereo not given)	> 100 µM (inactive)	> 100 µM (inactive)	> 100 µM	> 100 µM (inactive)	> 100 µM (inactive)	> 100 µM (inactive)	> 100 µM (inactive)	> 100 µM (inactive)	> 100 µM (inactive)	> 100 µM (inactive)	> 100 µM (inactive)	> 100 µM (inactive)	> 100 µM (inactive)		> 100 µM (inactive)	> 100 µM (inactive)	
O=C(NN1C(=O)C(Cl)C1c1cccc(Cl)c1)c1ccccc1O (stereo not given)	> 100 µM (inactive)	> 100 µM (inactive)	> 100 µM	> 100 µM (inactive)	> 100 µM (inactive)	68.4 µM (inactive)	> 100 µM (inactive)	> 100 µM (inactive)	> 100 µM (inactive)	> 100 µM (inactive)		> 100 µM (inactive)	> 100 µM (inactive)		> 100 µM (inactive)	> 100 µM (inactive)	
COc1ccc2c(c1)[n+]([O-])c(-c1ccc(Cl)c(Cl)c1)c(N)[n+]2[O-]	30.3 µM (inactive)	46.1 µM (inactive)	33.3 µM	27 µM (inactive)	34.9 µM (inactive)	78.3 µM (inactive)	34.3 µM (inactive)	25.1 µM (inactive)	23.6 µM (inactive)		19 µM (inactive)	28.7 µM (inactive)	42.6 µM (inactive)	31.3 µM (inactive)	45.1 µM (inactive)	16.5 µM (inactive)	45 µM (inactive)
CCN(CC)CCC1(C2CCCCC2)CCC(=O)NC1=O (stereo not given)	> 100 µM (inactive)	> 100 µM (inactive)	> 100 µM	> 100 µM (inactive)	> 100 µM (inactive)	> 100 µM (inactive)	> 100 µM (inactive)	> 100 µM (inactive)	> 100 µM (inactive)	> 100 µM (inactive)	> 100 µM (inactive)	> 100 µM (inactive)	> 100 µM (inactive)	> 100 µM (inactive)	> 100 µM (inactive)	> 100 µM (inactive)	
CS(=O)(=O)NNS(=O)(=O)c1ccc(F)cc1	> 100 µM (inactive)	> 100 µM (inactive)	> 100 µM		> 100 µM (inactive)	> 100 µM (inactive)	> 100 µM (inactive)	> 100 µM (inactive)	> 100 µM (inactive)	> 100 µM (inactive)	> 100 µM (inactive)	> 100 µM (inactive)	> 100 µM (inactive)	> 100 µM (inactive)	> 100 µM (inactive)	> 100 µM (inactive)	> 100 µM (inactive)
N#CCCN(c1ccc(/C=N/c2nc(-c3ccccc3)cs2)cc1)S(=O)(=O)c1ccccc1	76.2 µM (inactive)	92.5 µM (inactive)	> 100 µM	85.3 µM (inactive)	> 100 µM (inactive)	46.2 µM (inactive)	> 100 µM (inactive)		> 100 µM (inactive)	59.2 µM (inactive)	> 100 µM (inactive)	64.7 µM (inactive)		44.4 µM (inactive)		35 µM (inactive)	
O=c1[nH]cc(COCCO)c(=O)[nH]1	> 100 µM (inactive)	> 100 µM (inactive)	> 100 µM	> 100 µM (inactive)	> 100 µM (inactive)	> 100 µM (inactive)	> 100 µM (inactive)	> 100 µM (inactive)	> 100 µM (inactive)	> 100 µM (inactive)	> 100 µM (inactive)	> 100 µM (inactive)	> 100 µM (inactive)	> 100 µM (inactive)	> 100 µM (inactive)	> 100 µM (inactive)	
COc1ccc(OC)c(NC(=O)C2=C(C)NC(C)=C(C(=O)Nc3cc(OC)ccc3OC)C2c2ccccc2)c1	85.1 µM (inactive)	> 100 µM (inactive)	> 100 µM	22.6 µM (inactive)	> 100 µM (inactive)	80.4 µM (inactive)	91.4 µM (inactive)	> 100 µM (inactive)	> 100 µM (inactive)	> 100 µM (inactive)	> 100 µM (inactive)	> 100 µM (inactive)	30 µM (inactive)	4.91 µM (inactive)		51.3 µM (inactive)	

Source: ChEMBL document CHEMBL1201862, “PubChem BioAssay data set” (2004)
